Assay results: patent US10611778B2, “Fused bicyclic inhibitors of menin-MLL interaction” (Janssen Pharmaceutica NV, priority 2016, dated 2020)
pIC50: −log10 of the molar value. “And” between values parts separate entries of the source, which are not always exact repeats. Identical values can stand only once. Counter-ions that a name gives are not always drawn. Like-named read-outs stand apart in the source and are kept apart here.

What was measured:
[1] = target: T1, Menin/MLL (terbium chelate-labeled menin, FITC-MBM1 peptide) (Homo sapiens, UniProt O00255, T541A); test: Menin/MLL homogenous time-resolved fluorescence (HTRF) assay; assay type: binding; conditions: for pIC50: averaged values over all measurements, read-out: Menin HTRF assay (IC50)
T1 construct: Menin (a.a. 1-610-6×his tag) was labeled with terbium cryptate as follows
T1 sequence (O00255 with tags, fused parts or gaps T541A): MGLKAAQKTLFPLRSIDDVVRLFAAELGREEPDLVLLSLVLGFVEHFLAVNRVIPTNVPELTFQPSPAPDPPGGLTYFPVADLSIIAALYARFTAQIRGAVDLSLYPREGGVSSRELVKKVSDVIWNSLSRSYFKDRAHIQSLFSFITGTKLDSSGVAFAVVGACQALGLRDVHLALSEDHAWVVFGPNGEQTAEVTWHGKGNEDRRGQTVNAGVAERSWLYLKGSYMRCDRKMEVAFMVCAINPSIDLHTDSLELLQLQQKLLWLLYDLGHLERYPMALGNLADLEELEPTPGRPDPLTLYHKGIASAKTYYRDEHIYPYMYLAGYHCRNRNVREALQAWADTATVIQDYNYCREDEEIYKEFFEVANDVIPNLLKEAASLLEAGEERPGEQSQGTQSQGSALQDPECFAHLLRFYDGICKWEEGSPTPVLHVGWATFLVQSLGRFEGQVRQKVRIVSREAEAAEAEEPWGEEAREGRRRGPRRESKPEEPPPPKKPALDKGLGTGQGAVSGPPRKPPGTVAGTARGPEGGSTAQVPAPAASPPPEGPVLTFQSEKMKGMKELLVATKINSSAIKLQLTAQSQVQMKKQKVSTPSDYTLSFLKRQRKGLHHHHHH
Procedure, shortened: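 Compound preincubated 5 min with terbium-cryptate-labeled menin (aa 1-610, His-tagged; 100 pM final), then 75 nM FITC-MBM1 peptide added, 15 min at ambient temperature; 0.5% DMSO, Tris pH 7.5 buffer. HTRF ratio 520/490 nm; % inhibition vs saturating competitor, IC50 from 11-point three-fold titration from 31 μM.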

MV-4-11 = test: Proliferation assay (spheroid assay) MV-4-11; assay type: cell-based, human; conditions: for pIC50: Homo sapiens, MV4-11, MV-4-11, averaged values over all measurements, read-out: Spheroid assay MV-4-11 (IC50)
Procedure, shortened: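 Cells were grown as spheroids in ultra-low attachment round-bottom wells with compound (0.3% DMSO) for 8 d at 37 °C, imaged every 4 h, with confluence as spheroid size. AUC of confluence versus time (t=0 baseline) was expressed as % of DMSO control, and absolute IC50 came from a least-squares nonlinear fit.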

MOLM14 = test: Proliferation assay (spheroid assay) MOLM14; assay type: cell-based, human; conditions: Homo sapiens; for pIC50: MOLM-14, MOLM14, averaged values over all measurements, read-out: Spheroid assay MOLM14 (IC50)
Method: (§1) The anti-proliferative effect of menin/MLL protein/protein interaction inhibitor test compounds was assessed in human leukemia cell lines. The cell lines MV-4-11 and MOLM14 harbor MLL translocations and express the MLL fusion proteins MLL-AF4 and MLL-AF9, respectively, as well as the wildtype protein from the second allele. […] K562 and KG1 were used as a control cell lines containing two MLL wildtype alleles in order to exclude compounds that display general cytotoxic effects.
(§2) MV-4-11 and MOLM14 were cultured in RPMI-1640 (Sigma Aldrich) supplemented with 10% fetal bovine serum (HyClone), 2 mM L-glutamine (Sigma Aldrich) and 50 μg/ml gentamycin (Gibco). K562 were propagated in RPMI-1640 (Sigma Aldrich) supplemented with 20% fetal bovine serum (HyClone), 2 mM L-glutamine (Sigma Aldrich) and 50 μg/ml gentamycin (Gibco). KG1 were cultured in Iscove's MDM (Gibco) supplemented with 20% fetal bovine serum (HyClone), 2 mM L-glutamine (Sigma Aldrich) and 50 μg/ml gentamycin (Gibco).
(§3) In order to assess the anti-proliferative effects, 1,500 MV-4-11, 300 MOLM14, 750 K562 or 1,300 KG1 cells were seeded in 200 μl media per well in 96-well round bottom, ultra-low attachment plates (Costar, catalogue number 7007). Cell seeding numbers were chosen based on growth curves to ensure linear growth throughout the experiment. Test compounds were added at different concentrations and the DMSO content was normalized to 0.3%. Cells were incubated for 8 d at 37° C. and 5% CO2. Spheroid like growth was monitored in real-time by live-cell imaging (IncuCyteZOOM, Essenbio, 4× objective) acquiring one image every four hours for 8 d. Confluence (%) as a measure of spheroid size was determined using an integrated analysis tool.
(§4) In order to determine the cumulative effect of the test compounds over time, the area under the curve (AUC) in a plot of confluence against time was calculated. Confluence at the beginning of the experiment (t=0) was used as baseline for the AUC calculation.
(§5) Absolute IC50 values were calculated according to the following procedure: % Control=(AUC sample/AUC control)*100
(§6) AUC control=mean AUC of control values (cells without compound/DMSO as vehicle control)
(§7) A non-linear curve fit was applied using the least squares (ordinary) fit method to the plot of % control versus compound concentration. Based on this, the absolute IC50 value (half maximal inhibitory concentration of the test compound causing an anti-proliferative effect of 50% relative to the vehicle control) was calculated.

K562 = test: Proliferation assay (spheroid assay) K562 control cell line; assay type: cell-based; conditions: Homo sapiens; for pIC50: K562 control cell line, averaged values over all measurements, read-out: Spheroid assay K562 (IC50)
Method: as §1, §2, §3, §4, §5, §6, §7

[2] = target: T2, Menin/MLL (menin, FITC-MBM1 peptide) (Homo sapiens, UniProt O00255, T541A); test: Menin/MLL fluorescence polarization (FP) assay; assay type: binding; conditions: averaged values over all measurements; read-out: Menin FP assay (IC50)
T2 construct: 6xHis (C)
T2 sequence (O00255 with tags, fused parts or gaps T541A): T1 sequence (O00255 with tags, fused parts or gaps T541A)
Method: Pharmacological Part 1) Menin/MLL Fluorescence Polarization Assay
To a non-surface binding, black 384-well microtiter plate was added 50 nL 160× test compound in DMSO and 4 μL 2× menin in assay buffer (40 mM Tris-HCl, pH 7.5, 50 mM NaCl, 1 mM DTT and 0.001% Tween 20). After incubation of test compound and menin for 10 min at ambient temperature, 4 μL 2×FITC-MBM1 peptide (FITC-β-alanine-SARWRFPARPGT-NH2) in assay buffer was added, the microtiter plate centrifuged at 1000 rpm for 1 min and the assay mixtures incubated for 15 min at ambient temperature. The relative amount of menin: FITC-MBM1 complex present in an assay mixture is determined by measuring the fluorescence polarization (FP) of the FITC label with a BMG Pherastar plate reader (ex. 485 nm/em. 520 nm) at ambient temperature. The final concentrations of reagents in the binding assay are 100 nM menin, 5 nM FITC-MBM1 peptide and 0.625% DMSO in assay buffer. Dose-response titrations of test compounds are conducted using an 11 point, three-fold serial dilution scheme, starting at 31 μM.
Compound potencies were determined by first calculating % inhibition at each compound concentration according to equation 1: % inhibition=((HC−LC)−(FP^compound−LC))/(HC−LC))*100 (Eqn 1)
Where LC and HC are the FP values of the assay in the presence or absence of a saturating concentration of a compound that competes with FITC-MBM1 for binding to menin, and FP^compound is the measured FP value in the presence of the test compound. HC and LC FP values represent an average of at least 16 replicates per plate.
Where Bottom and Top are the lower and upper asymptotes of the dose-response curve, respectively, IC50 is the concentration of compound that yields 50% inhibition of signal and h is the Hill coefficient.

KG1 = test: Proliferation assay (spheroid assay) KG1 control cell line; assay type: cell-based; conditions: Homo sapiens, KG-1, averaged values over all measurements
Method: as §1, §2, §3, §4, §5, §6, §7

Compound	melting point	pIC50 [1]	pIC50 (MOLM14)	pIC50 (K562)	pIC50 (MV-4-11)	other results
O=S(=O)(c1ccccc1)N1CC[C@@H]2CN(c3ncnc4sc(CC(F)(F)F)cc34)CC[C@@H]21 (as salt: HCl) (hydrate or solvate) [Compound 16]	152 °C	–	–	–	–	–
FC(F)(F)Cc1cc2c(N3CCC4C(CCN4Cc4ncc[nH]4)C3)ncnc2s1 (stereo not shown) (as salt: HCl) [Compound 22]	140 °C	–	–	–	–	–
CC(C)CN1CCC2CN(c3ncnc4sc(CC(F)(F)F)cc34)CCC21 (stereo not shown) (as salt: HCl) [Compound 25]	140 °C	–	–	–	–	–
[2H]C([2H])(c1ccccc1)N1CC[C@@H]2CN(c3ncnc4sc(CC(F)(F)F)cc34)CC[C@@H]21 (single isomer, unassigned) [Compound 5]	–	–	–	–	–	IC50 ([1]; individual measurements (not averaged), read-out: (3) Menin HTRF assay (IC50 (nM))): 9 nM; IC50 (MV-4-11; MV-4-11, 8 d, individual measurements (not averaged), read-out: (2) Spheroid assay MV-4-11 (IC50 (μM))): 2.1 µM and > 15 µM; IC50 (MOLM14; MOLM-14, 192 h, MOLM14, 8 d, individual measurements (not averaged), read-out: (2) Spheroid assay MOLM14 (IC50 (μM))): 4.3 µM; IC50 (K562; 192 h, K562, 8 d, individual measurements (not averaged), read-out: (2) Spheroid assay K562 (IC50 (μM))): > 15 µM
Fc1ccccc1CN1CC[C@@H]2CN(c3ncnc4sc(CC(F)(F)F)cc34)CC[C@@H]21 (single isomer, unassigned) [Compound 7]	–	6.29	4.84	< 4.82	–	pIC50 [2]: 6.20
CC(C)(C)OC(=O)N1CCC(CN2CC[C@@H]3CN(c4ncnc5sc(CC(F)(F)F)cc45)C[C@@H]3C2)CC1 (single isomer, unassigned) [Compound 20]	–	7.51	6.01	< 4.82	6.42	–
FC(F)(F)Cc1cc2c(N3C[C@@H]4CCN(Cc5ccccc5)C[C@@H]43)ncnc2s1 (single isomer, unassigned) [Compound 30]	140 °C	~5.90	–	–	–	–
FC(F)(F)Cc1cc2c(N3C[C@H]4CCN(Cc5ccccc5)C[C@H]43)ncnc2s1 (single isomer, unassigned) [Compound 31]	150 °C	5.96	–	–	–	–
CC(C)CN1CC[C@@H]2CN(c3ncnc4sc(CC(F)(F)F)cc34)C[C@@H]2C1 (single isomer, unassigned) [Compound 36]	–	7.82	5.85	< 4.82	6.66	pIC50 (KG1): < 4.82
FC(F)(F)Cc1cc2c(N3C[C@H]4CCN(Cc5ccncc5)C[C@H]4C3)ncnc2s1 (single isomer, unassigned) [Compound 64]	–	7.60	6.11	–	6.26	pIC50 (KG1): 5.08
O=c1ccc(CN2CC[C@@H]3CN(c4ncnc5sc(CC(F)(F)F)cc45)C[C@@H]3C2)c[nH]1 (single isomer, unassigned) [Compound 67]	–	7.57	5.49	–	6.49	pIC50 (KG1): < 4.82
CC(C)CN1CC[C@H]2CN(c3ncnc4sc(CC(F)(F)F)cc34)C[C@H]2C1 (single isomer, unassigned) [Compound 69]	109 °C	7.24	–	–	5.74	–
FC(F)(F)Cc1cc2c(N3C[C@H]4CCN(CC5CCNCC5)C[C@H]4C3)ncnc2s1 (single isomer, unassigned) [Compound 70B]	–	7.62	5.70	< 4.82	6.55	–
FC(F)(F)Cc1cc2c(N3C[C@H]4CCN(CC5CCOCC5)C[C@H]4C3)ncnc2s1 (single isomer, unassigned) [Compound 70]	160 °C	7.74	5.85	< 4.82	6.25	pIC50 (KG1): < 4.82
Cn1cc(CN2CC[C@H]3CN(c4ncnc5sc(CC(F)(F)F)cc45)C[C@H]3C2)cn1 (single isomer, unassigned) [Compound 71B]	–	7.27	5.66	< 4.82	6.38	pIC50 (KG1): < 4.82
O=C([C@@H]1CC2(CC2)CN1)N1CC[C@@H]2CN(c3ncnc4sc(CC(F)(F)F)cc34)C[C@@H]2C1 (single isomer, unassigned) [Compound 81]	112 °C	6.39	–	–	5.24	–
O=C([C@@H]1CC2(CC2)CN1)N1CC[C@H]2CN(c3ncnc4sc(CC(F)(F)F)cc34)C[C@H]2C1 (single isomer, unassigned) [Compound 82]	105 °C	6.19	–	–	5.10	–
FC(F)(F)Cc1cc2c(N3C[C@@H]4CN(Cc5ccccc5)C[C@@H]43)ncnc2s1 [Compound 29]	134 °C	5.46	–	–	–	–
